According to publication PMC13058460, “PET-MRI biomarkers reveal efficacy of a novel NLRP3 inhibitor in Parkinson’s disease models” (Brain, 2025):

Key:
[1] = Single-dose pharmacokinetics (plasma and brain) in C57BL/6J mice; assay type: in vivo, mouse
[2] = tested on: 6-OHDA Parkinson's mouse model; test: 6-OHDA mouse model, PET/MRI imaging study with MCC7840 in drinking water; assay type: in vivo; settings: 0.3 mg/ml in drinking water
Description: (§1) The Supplementary material contains detailed treatment regimens.
(§2) Blood was collected in ethylenediaminetetraacetic acid (EDTA) tubes, plasma aliquoted and stored at −80°C. IL-1β was quantified by ELISA (R&D Systems). Extended methods are in the Supplementary material.
On Days 24–28 post-surgery, mice underwent PET/MRI with ^18F-DPA-714 (Day 24), ^18F-FBCTT (Day 26) and ^18F-FDOPA (Day 28) to assess microglial activation, dopamine transporter function and presynaptic dopamine synthesis, respectively. Standardized uptake value ratios (SUVRs) were calculated as ipsilateral/contralateral striatum ratios. Detailed acquisition and analysis methods are provided in the Supplementary material.
The microglial IC50 and IC90 values are shown with dotted lines. (B) Schematic of the 6-OHDA imaging study [created in BioRender. […] (C) Amphetamine-induced ipsilateral rotations at Day 17. (D–F) Structures of ^18F-DPA-714, ^18F-FBCTT and ^18F-FDOPA. […] (H) Time-activity curves for ^18F-DPA-714 generated from dynamic imaging and presented as standard uptake value ratio from ipsilateral to contralateral hemispheres (standardized uptake value ratio, SUV-ratios). The 60 min imaging time point is shown on the right. (I) Representative brain PET/MRI images and (J) quantitative SUV-ratios for ^18F-FBCTT. […] (K) Representative brain PET/MRI images and (L) quantitative SUV-ratios for ^18F-FDOPA. […] (M–O) MRI blood–brain barrier leakage measurement of gadolinium T1 relaxation time values in ipsilateral (M) and contralateral (N) hemispheres and expressed as a ratio (O). (P) Plasma IL-1β concentrations in mice at Day 28. […] SUV-BW = standard uptake value corrected for body weight.
To perform PET imaging, the same mouse was intravenously administered three radiotracers at sequential time points: ^18F-DPA-714 at Day 24 to label TSPO and neuroinflammation (Fig. 5D), ^18F-FBCTT at Day 26 to label dopamine transporter (DAT) availability (Fig. 5E)[42] and ^18F-FDOPA at Day 28 to label dopamine uptake (Fig. 5F),[43] following 6-OHDA or saline injection. At each time point, mice were anaesthetized and imaged using PET/MRI to visualize radiotracer uptake in the brains of living mice (Fig. 5B).
DOPA and F-rac-DOPA. Chiral HPLC method: Daicel Crownpak CR+ (4.0 × 150mm x 5µm, Part No. 27714), Flow rate = 0.8ml/min with 100% (perchloric acid pH 2.0).
PET/MRI imaging in the 6-OHDA model
Twenty-four days post-surgery, mice from each experimental group were injected with a radiotracer every second day in a group of 3-4 mice per imaging week. Three different radiotracers were used on three different days. [18F]DPA-714 (24th day post-surgery) was used to target the translocator protein, TSPO, overexpressed in activated microglia during neuroinflammation. […]

PFF-Syn mouse model = test: PFF-Syn Parkinson's disease mouse model, preventative and therapeutic dosing in drinking water; assay type: in vivo
Description: Recombinant human α-synuclein (rPeptide) was incubated in PBS at 37°C, 400 rpm, for 7 days with daily sonication cycle. Fibril formation was validated by transmission electron microscopy (TEM) and Thioflavin T fluorescence.[34],[35]
as §1, §2
Mice traversed a 0.5 cm × 1 m beam apparatus; latency to cross was measured at 4, 6, 8 and 10 months post-PFF-Syn.
Accelerated rotarod (5–40 rpm over 5 min) assessed latency to fall at 4, 6, 8 and 10 months post-PFF-Syn as previously described.[17],[18]
At 11 months post-PFF injection, mice were scanned with ^18F-DPA-714 PET/MRI. Regions of interest (ROIs) were anatomically defined in striatum using MRI guidance. SUVRs and T1 relaxation times were calculated. Extended imaging parameters are in the Supplementary material.
(A) Schematic of the PFF-Syn study [created in BioRender. […] (B–E) Rotarod and (F–I) balance-beam testing of mice at 4, 6, 8 and 10 months post PFF-Syn or saline injection (n = 8–10/group). […] (K) Time-activity curves for ^18F-DPA-714 generated from dynamic imaging and presented as standard uptake value ratio (SUV-ratio) from ipsilateral to contralateral hemispheres (n = 4–8/group). (L) Sixty minute SUV-ratio time point for data in L. (M) Representative autoradiography images for ^18F-DPA-714 from brain slices taken following PET imaging. (N) Quantitation of ^18F-DPA-714 autoradiography, and blockade of signal with PK11195. (O) Representative immunohistochemistry for microglial marker ionized calcium-binding adaptor molecule 1 (Iba1; green) from brain slices taken following PET imaging; cell nuclei 4′,6-diamidino-2-phenylindole (DAPI; blue). Square dotted line box in M represents approximate region imaged; magnification ×40, scale bars = 20 μm. (P) Ipsilateral striatal dopamine quantitation, and (Q) plasma interleukin (IL)-1β concentrations in mice after completion of PET imaging experiments (n = 4–8/group).

[3] = 6, 8 and 10 months, both preventative and therapeutic groups

CC(C)n1ccc(S(=O)(=O)NC(=O)Nc2c3c(cc4c2CCC4)CCC3)n1 [MCC7840]
Tolerability in single-dose pharmacokinetic studies ([1]; fasted male C57BL/6J mice, i.v. 4 mg/kg or oral 20 mg/kg): well tolerated | bioavailability ([1]; male, C57BL/6J, mouse, plasma, oral, mice, p.o. 20 mg/kg vs i.v. 4 mg/kg): 68% | Kp at 2 h ([1]; male, C57BL/6J, mouse, mice, oral administration 20 mg/kg, total brain concentration, read-out: Brain-to-plasma ratio): ~0.035 | Oral half-life ([1]; mice, p.o. 20 mg/kg, plasma): 5.0 h | Gadolinium T1 relaxation time decrease (blood-brain barrier leakage) [2]: absent | Loss of 18F-FBCTT signal (DAT) ([2]; Day 26): significant, but not complete protection | 6-OHDA-induced increase in plasma IL-1β ([2]; Day 28): effectively suppressed | Reduced ipsilateral 18F-FDOPA signal (dopamine uptake) ([2]; Day 28): significantly protected | Rotarod motor deficit (PFF-Syn mouse model; 4 months post-injection, preventative (pre-PFF) group, 0.3 mg/ml drinking water): significantly attenuated | Balance beam crossing latency (PFF-Syn mouse model; 4 months, pre-treated mice): significantly reduced | Balance beam performance (PFF-Syn mouse model; [3]): improved balance beam performance | Rotarod progressive motor decline (PFF-Syn mouse model; [3]): significantly protected | Striatal dopamine loss and reduced metabolite levels (PFF-Syn mouse model; both dosing regimens, after PET imaging): significantly protected | 18F-DPA-714 PET signal (PFF-Syn mouse model; both preventative and therapeutic groups, PET/MRI at 12 months (11 months in methods)): significantly reduced | PFF-Syn-induced plasma IL-1β increase (PFF-Syn mouse model; preventative group): fully suppressed | Reduction of PFF-Syn-induced plasma IL-1β (PFF-Syn mouse model; therapeutic group (from 4 months post-PFF)): ~70%
